Experimental data reported in patent US20200270588A1, “GLUCOSYL TRANSFERASE POLYPEPTIDES AND METHODS OF USE” (Syngenta Participations AG, priority 2017, published 2020).
Where “and” joins values, the source holds several entries; their conditions need not be identical. Equal values may be shown once.

Target: T1, SEQ ID 35, mutant bx-type glucosyl transferase (Zea mays, UniProt Q8W2B7, A437P)
T1 construct: 35; 3.66E+05; 8.20E+07; 5.96E+06; His tag; made in house
Test: LC/MS glucosyl transferase assay (glucoside peak area), purified enzyme
Type: biochemical
Conditions: about 60 min, ~15 pmol enzyme, relative quantification only

T1 sequence (Q8W2B7 whole entry A437P): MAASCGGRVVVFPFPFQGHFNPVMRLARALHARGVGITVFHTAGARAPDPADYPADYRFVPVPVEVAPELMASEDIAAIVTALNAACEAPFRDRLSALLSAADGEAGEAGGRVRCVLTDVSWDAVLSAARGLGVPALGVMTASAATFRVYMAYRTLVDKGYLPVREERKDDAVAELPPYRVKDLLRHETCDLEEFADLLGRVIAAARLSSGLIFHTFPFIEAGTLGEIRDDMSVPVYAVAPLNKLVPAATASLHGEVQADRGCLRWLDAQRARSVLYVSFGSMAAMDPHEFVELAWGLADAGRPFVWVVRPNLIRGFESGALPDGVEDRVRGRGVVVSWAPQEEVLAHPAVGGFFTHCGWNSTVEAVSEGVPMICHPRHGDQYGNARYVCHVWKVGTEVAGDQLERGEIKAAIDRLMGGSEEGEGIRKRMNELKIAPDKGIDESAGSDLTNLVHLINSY

## CN1CC(O)N(c2cc(C(F)(F)F)ccn2)C1=O (stereo not shown) [Compound V]
  integrated peak area of beta-glucoside product: 5.96E+06 and 4.40E+06
